Results on 1 compound are retold here after patent US20260207626A1, “SYNTHETIC TRITERPENOIDS AND COMPOSITIONS THEREOF IN WEIGHT MANAGEMENT, SKELETAL MUSCLE FUNCTION, AND APPETITE SUPPRESSION” (The Board of Regents of the University of Texas System, priority 2022, published 2026).

Data set [1] relates to N171-82Q mice. Particulars: cited from earlier work.
A short description of data set [2]: Body weight of mice fed LFD or HFD with or without CDDO-EA in the chow for 6 weeks. It is filed as in vivo, C57B16/J mice. From the text: To assess the protective effects of CDDO-EA from obesity and insulin resistance, C57B16/J mice (6-8 weeks old, male, strain #000664, The Jackson Laboratory) were used. The animals were fed a Low Fat diet (LFD) (10% total calories from fat, […]) or a High Fat diet (HFD) (60% of total calories from fat) incorporated with or without CDDO-EA (chow containing 0.04% CDDO-EA) for six weeks. Feeding groups: The mice were put into one of four groups: • (i) HFD (60% total calories from fat), • (ii) HFD+0.04% CDDO-EA, • (iii) LFD (10% total calories from fat), • (iv) LFD+0.04% CDDO-EA. Unlike Shin et al. and Camer et al., where the CDDO was administered via gavage or in the drinking water, the present studies provide for a feed material (veterinary chow mix) formulated to include 400 mg CDDO-EA in 1 kilogram of veterinary chow, which is 0.04% CDDO-EA in 1 kilogram of veterinary chow. […] This is because the amount of chow without CDDO-EA (LFD) consumed by the animals was approximately the same amount of chow with CDDO-EA consumed by the animals (LFD+CDDO-EA) (See Table 3). Data were statistically analyzed by One-Way ANOVA, Two-Way ANOVA with repeated measures, or Two-Way ANOVA with Tukey's multiple comparison test. Throughout the collection of blood samples, OGTTs, and measurement of bodyweight, mice were unrestrained and awake. Blood samples were collected via tail snip before start of experimental feeding and then every two weeks. Oral glucose tolerance tests (OGTTs) were performed after the six-week experimental feeding, and blood samples were collected via tail snip during the OGTT. For OGTT, mice were given 2 g of glucose/kg of body weight by gavage after a five hour fast (36). Glucose levels were measured using a glucometer (Contour), and insulin concentrations were measured using an ELISA (Mercodia). Mice were weighed once a week. Glucose and insulin serum levels were measured every two weeks.

“Also recorded” adds a separate entry of the source.

As for `CCNC(=O)[C@]12CCC(C)(C)C[C@H]1C1C(=O)C=C3[C@@]4(C)C=C(C#N)C(=O)C(C)(C)[C@@H]4CC[C@@]3(C)[C@]1(C)CC2` (stereo partly drawn) [CDDO-EA, (4aS,6aR,6bS,8aR,12aS,14bS)-11-cyano-N-ethyl-2,2,6a,6b,9,9,12a-heptamethyl-10,14-dioxo-1,3,4,5,6,6a,6b, 7,8,8a,9,10,12a, 14,14a, 14b-hexadecahydropicene-4a (2H)-carboxamide], in data set [1] (N171-82Q mice), the “muscle strength and balance, survival” value was “improved muscle strength and balance and increased survival”. Also, the “accumulation in the skeletal muscle” value in data set [1] (Stack et al. (2010)) is recorded as “accumulated in the skeletal muscle”. For the same compound, in data set [1] (Stack et al. (2010)), the “oxidative stress in skeletal muscle” value is given as “oxidative stress in skeletal muscle was reduced”. Further, the “difference in weight between mice fed a high fat diet and mice fed a high fat diet incorporated with CDDO-EA” value in data set [2] (0.04% CDDO-EA, 6 weeks) was found to be 66.8%. The “Average Weight (g) of Mice” value in data set [2] (HFD + CDDO-EA (0.04%), week 1) amounted to 23.4 ± 0.5 g; in data set [2] (HFD + CDDO-EA (0.04%), week 2), 23.2 ± 0.5 g; in data set [2] (HFD + CDDO-EA (0.04%), week 3), 24.6 ± 0.5 g; in data set [2] (HFD + CDDO-EA (0.04%), week 4), 24.1 ± 0.5 g; in data set [2] (HFD + CDDO-EA (0.04%), week 5) it was 25.4 ± 0.5 g; in data set [2] (HFD + CDDO-EA (0.04%), week 6) it was 25.3 ± 0.5 g. Besides, the “Average Weight (g) of Mice” value in data set [2] (HFD + CDDO-EA (diet containing 0.04% CDDO-EA), week 0) is recorded as 23.8 ± 0.5 g; in data set [2] (LFD + CDDO-EA (0.04%), week 1), 24.4 ± 0.9 g; in data set [2] (LFD + CDDO-EA (0.04%), week 2) it was 24.4 ± 0.8 g; in data set [2] (LFD + CDDO-EA (0.04%), week 3), 25.8 ± 0.7 g; in data set [2] (LFD + CDDO-EA (0.04%), week 4), 25.4 ± 0.7 g; in data set [2] (LFD + CDDO-EA (0.04%), week 5), 26.4 ± 0.6 g. The “Average Weight (g) of Mice” value in data set [2] (LFD + CDDO-EA (0.04%), week 6) came to 26.0 ± 0.4 g; in data set [2] (LFD + CDDO-EA (diet containing 0.04% CDDO-EA), week 0), 25.5 ± 1.0 g. Besides, the “body weight gain / obesity” value in data set [2] (HFD + CDDO-EA (400 mg/kg diet, 0.04%), 6 weeks) was “did not have a significant increase in body weight; also recorded: significantly blocked gain weight; also recorded: prevented the excess weight gain; also recorded: inhibits weight gain and obesity in vivo; also recorded: did not evidence a significant weight gain; also recorded: prevents obesity”. Further, in data set [2] (HFD incorporated with 0.04% CDDO-EA), the “significant weight gain prevented” value came out at 66.8%.
